37 molecules from PubChem BioAssay (NCI) can be followed below.

Where “and” joins values, the source holds several entries; their conditions need not be identical. Identical values can stand only once.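 Briefly, cells in 96-well plates were exposed to five compound concentrations for 48 h, and endpoints were estimated by linear interpolation. GI50 is the concentration that inhibits growth by half. TGI: concentration producing complete growth inhibition.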

What all share (experiment): NCI tumour cell line growth inhibition, 48 h
For assay [1], the system named is DMS 273 small cell lung.
The test system of assay [2] is HOP-18 NSCLC.
Assay [3] relates to LXFL 529 NSCLC.
Assay [4] relates to M19-MEL melanoma.
Assay [5] concerns SNB-78 CNS.
The subject of assay [6] is DLD-1 colon.
Assay [7] deals with DMS 114 small cell lung.
Assay [8] concerns RXF-631 renal.
For assay [9], the system named is MDA-N.
The subject of assay [10] is P388 leukemia.
For assay [11], the system named is P388/ADR leukemia.
Assay [12] concerns SN12K1 renal.

Consider `CC(=O)OC12C(C)=C(C)C(=O)N1c1ccccc1N2C(C)=O` (stereo not given), for which the TGI in assay [1], in [2], in assay [3], in assay [4] and in assay [5] was > 100 µM in each case.
On to `COc1ccc(CC(=O)NCCc2ccc(OC)c(OC)c2OC)cc1`, for which the TGI in [6], in assay [7], in assay [2], in assay [3], in assay [4] and in assay [8] was > 100 µM each time. Moreover, the TGI in assay [5] is > 100 µM.
With `O=C1c2ccccc2-c2c3c(cc4ccnc1c24)OCO3`, the TGI in [6] was 24.7 µM and 27.3 µM; in assay [7], > 100 µM and 32.4 µM; in assay [1], 29.4 µM and 19.2 µM; in assay [2], > 100 µM; in assay [3], 51.5 µM and > 100 µM; in assay [4], 86.7 µM and 12.9 µM. Moreover, in assay [5], the TGI was 66.1 µM and > 100 µM. The GI50 in assay [7] is 10.1 µM and 4.87 µM; in assay [5], 14.9 µM and 6.03 µM.
For the molecule `CC(Oc1ccc2c(-c3ccc(Cl)cc3)cc(=O)oc2c1)C(=O)O` (stereo not given), the TGI in assay [6], in assay [2], in assay [3], in [8] and in assay [5] was > 100 µM each time.
`O=C(O)Cc1cccc2c(=O)cc(-c3ccccc3)oc12`: the TGI in assay [6] was > 250 µM; in assay [7] it was 250 µM; in assay [1], > 250 µM; in assay [2], 250 µM; in assay [4], > 250 µM; in assay [9], 250 µM and > 893 µM. For the same molecule, the TGI was 250 µM in assay [10], 150 µM in assay [11], > 250 µM in assay [12] and > 250 µM in assay [5]. Further, the GI50 in assay [9] was 176 µM.
`CCOC(=O)c1ccc(-n2cnc(-c3ccc([N+](=O)[O-])cc3)c2)cc1`: the TGI in [9] is > 100 µM.
Consider `CC(C)(C)C(=O)N1C(C(=O)O)Cc2ccccc2[C@@H]1Cc1ccccc1` (stereo not given in full), for which the TGI in assay [7], in assay [1], in assay [2], in [3], in [4] and in assay [8] was > 100 µM in each case. In assay [5], the TGI is > 100 µM.
As for `C=CCC1(C(=O)OC)CCC/C(=N\O)C1` (stereo not given), the TGI in assay [9] is > 10 µM.
`CC(C)(C)OC(=O)C1C(=O)NC(=O)CC1CC(OCc1ccccc1)C(OCc1ccccc1)C(COCc1ccccc1)OCc1ccccc1` (stereo not given): in assay [9], the GI50 was > 100 µM and 34.2 µM; the TGI is > 100 µM.
`CCN(CC)CCN(CC)CC.CCN(CC)CCN(CC)CC.[Cu+2].[Cu+2].[O-][Cl+3]([O-])([O-])[O-].[OH3+].[OH3+]`: the GI50 in [6] was 51.9 µM; in assay [7], 16.6 µM; in assay [1] it was 22 µM; in assay [2], > 100 µM; in assay [3], > 100 µM; in [4] it was 24.2 µM. Besides, the GI50 in assay [5] was > 100 µM. Moreover, the TGI is > 100 µM in [6]; 32.6 µM in assay [7]; > 100 µM in [1]; > 100 µM in assay [2]; > 100 µM in [3]; 53.7 µM in [4]. In [5], the TGI is > 100 µM.
Consider `O=[N+]([O-])c1nccn1CC(O)c1ccccc1` (stereo not given), for which the TGI in assay [7], in assay [1], in assay [2] and in assay [3] was > 100 µM each time.
In assay [9], `Cc1ccc(OCC2CO2)c(Br)c1` (stereo not given) had a TGI of 58.9 µM.
Consider `O=C(c1c(F)c(F)c(F)c(F)c1F)c1c(F)c(F)c(F)c(F)c1F`, for which, in [9], the TGI was 3.11 µM.
Regarding `CCOC(=O)C1(C(=O)OCC)C(C(C)(C)C)=C(C)c2ccccc21`, the TGI in assay [6] stood at 26.4 µM; in assay [7], 26.5 µM; in [1], 25.5 µM; in [2], 70.2 µM; in assay [3], 24.5 µM; in assay [4], 38.8 µM. Besides, in assay [8], the TGI amounted to 37.9 µM.
As to `O=C1Nc2c(Cl)cc(Cl)cc2/C1=N/N=C/c1ccco1`, the TGI in assay [9] was determined as 55.3 µM.
`CC(C)(C)C1=CC(=N/N=c2\scc(-c3ccccc3)n2-c2ccccc2)C=C(C(C)(C)C)C1=O`: the TGI in assay [6], in [7], in assay [1], in [2], in assay [3] and in assay [4] was > 100 µM each time. For the same molecule, the TGI in [5] is > 100 µM.
For the molecule `COc1ccc(/C=C/c2cc(OC)c(OC(C)=O)c(OC)c2)cc1`, the TGI was > 100 µM in assay [6]; 84.7 µM in assay [7]; > 100 µM in assay [1]; > 100 µM in assay [3]; > 100 µM in [4]; > 100 µM in assay [8]. This molecule displayed a TGI in assay [5] of 76.1 µM.
Consider `O=C(CC1(O)C(=O)Nc2c(Cl)cc(Cl)cc21)c1ccccc1` (stereo not given), for which the TGI in assay [7], in assay [1], in [3], in assay [4], in assay [8] and in assay [5] was > 100 µM in each case.
As for `O=C(C[n+]1ccccc1)N/N=C(/CCC(=O)N(Cc1ccccc1)Cc1ccccc1)CC(=O)c1ccccc1`, the TGI in assay [6], in assay [7], in assay [1], in [2], in [3] and in assay [4] was > 100 µM in each case. Besides, the TGI in [8] and in [5] was > 100 µM throughout.
Regarding `NC(=O)c1cc(N2CC2)c([N+](=O)[O-])cc1[N+](=O)[O-]`, the TGI in [9] was > 200 µM.
On the same count and under the same terms, with `O=C1c2ccccc2C(=O)N1CCc1ncc(-c2ccccc2)[nH]1` the figure was > 100 µM.
With `COc1ccc(C(=O)C2CCC(C(=O)O)C2)cc1` (stereo not given), the TGI in [6], in [7], in assay [1], in assay [3], in assay [4] and in [5] was > 100 µM each time.
For the molecule `COc1ccc(NC(=O)Oc2ccc3c(C)cc(=O)oc3c2)c(OC)c1` (tested in a mixture with another compound), in assay [9], the TGI was > 100 µM.
Still for that read-out and setting: next, `Cc1ccc(OP(=O)(Oc2ccc(C)cc2)N2C=Cc3ccccc3C2C#N)cc1` (stereo not given): > 100 µM; `OC1CC2CCC(C1)N2CCCN1c2ccccc2Sc2ccc(Cl)cc21` (stereo not given): 3.62 µM.
Take `O=c1cc(-c2ccc(F)cc2)[nH]c2ncccc12`: in [9], the GI50 was 14.1 µM and the TGI is 35.9 µM.
Turning to `COC(=O)CCC(=O)Nc1ccc(Cl)cc1C`, the TGI in [6], in [7], in assay [1], in [2], in assay [3] and in assay [4] was > 100 µM throughout. The TGI in [8] and in [5] was > 100 µM each time.
In the case of `CSC(=NC(=O)c1ccccc1Cl)SCCSC(=NC(=O)c1ccccc1Cl)SC`, the TGI in assay [6], in assay [7], in [1], in assay [4] and in assay [5] was > 100 µM in each case.
With `CCC[CH2][Sn](=[O])[CH2]CCC`, the GI50 in assay [6], in assay [7], in assay [1], in [2], in assay [3] and in assay [4] was > 50 µM each time. In assay [5], the GI50 was > 50 µM. Also, the TGI in assay [6], in [7], in [1], in [2], in assay [3] and in [4] was > 50 µM throughout. Moreover, the TGI in assay [5] is > 50 µM.
For the molecule `c1ccc(SC(Sc2ccccc2)=C2CCC2)cc1`, the TGI in assay [6], in assay [7], in assay [1], in assay [4], in [8] and in assay [5] was > 100 µM throughout.
As for `O=C(O)/C=C/c1ccc(Oc2ccccc2C(=O)O)o1`, the TGI in [9] was > 10 µM.
As to `NC(=S)N1N=C2CCCCCC[C@@H]2[C@H]1c1ccccc1`, the TGI in assay [6], in assay [7], in [1], in assay [3], in assay [4] and in [5] was > 100 µM throughout.
In the case of `CCCCCCCCCCCCSC(=S)c1c(C)[nH]n(-c2ccccc2)c1=O`, the TGI is > 50 µM in assay [6]; 28.4 µM in assay [7]; > 50 µM in assay [2]; > 50 µM in assay [3]; > 50 µM in assay [8]; > 50 µM in assay [5].
Consider `O=C(O)c1cccc(S(=O)(=O)NCCO)c1`, for which the TGI in [9] was > 100 µM.
On to `CC(=O)OCc1c(O)c2c([nH]c1=O)CCc1ccccc1-2`, for which the TGI in [6] came out at 162 µM; in [7], 155 µM; in assay [1], 159 µM; in [2] it was 295 µM; in assay [3] it was 111 µM; in assay [4], 108 µM. This molecule registered a TGI in assay [8] of 149 µM.
As for `CCOC(=O)C12CCCC1(O)N(NC(=O)OC)C(C)=C2C(=O)OC` (stereo not given), the TGI in [6], in [7], in [1], in assay [2], in [3] and in assay [4] was > 100 µM each time. Moreover, the TGI in assay [8] and in assay [5] was > 100 µM throughout.
With `Cc1ccc(/C=C/C(=O)c2ccc(Cl)c(Cl)c2)cc1`, the TGI in assay [6], in assay [1], in assay [2], in assay [3], in assay [8] and in [5] was > 100 µM throughout.
